Assay results from patent publication US11084829B2, “Ubiquitin-specific-processing protease 7 (USP7) modulators and uses thereof” (RAPT THERAPEUTICS, INC., priority 2018, dated 2021).

What follows are compounds tested against USP7 (Homo sapiens, UniProt Q93009) (assay: USP7 inhibitory potency (IC50)).
Assay type: biochemical
Description: Activity for compounds described herein is provided in Table 2, wherein potency levels are provided as follows: (Potency: USP7 IC50: A<0.01 μM; B=0.01-0.1 μM; C=>0.1 μM.

Sequence of USP7 (Q93009 whole entry): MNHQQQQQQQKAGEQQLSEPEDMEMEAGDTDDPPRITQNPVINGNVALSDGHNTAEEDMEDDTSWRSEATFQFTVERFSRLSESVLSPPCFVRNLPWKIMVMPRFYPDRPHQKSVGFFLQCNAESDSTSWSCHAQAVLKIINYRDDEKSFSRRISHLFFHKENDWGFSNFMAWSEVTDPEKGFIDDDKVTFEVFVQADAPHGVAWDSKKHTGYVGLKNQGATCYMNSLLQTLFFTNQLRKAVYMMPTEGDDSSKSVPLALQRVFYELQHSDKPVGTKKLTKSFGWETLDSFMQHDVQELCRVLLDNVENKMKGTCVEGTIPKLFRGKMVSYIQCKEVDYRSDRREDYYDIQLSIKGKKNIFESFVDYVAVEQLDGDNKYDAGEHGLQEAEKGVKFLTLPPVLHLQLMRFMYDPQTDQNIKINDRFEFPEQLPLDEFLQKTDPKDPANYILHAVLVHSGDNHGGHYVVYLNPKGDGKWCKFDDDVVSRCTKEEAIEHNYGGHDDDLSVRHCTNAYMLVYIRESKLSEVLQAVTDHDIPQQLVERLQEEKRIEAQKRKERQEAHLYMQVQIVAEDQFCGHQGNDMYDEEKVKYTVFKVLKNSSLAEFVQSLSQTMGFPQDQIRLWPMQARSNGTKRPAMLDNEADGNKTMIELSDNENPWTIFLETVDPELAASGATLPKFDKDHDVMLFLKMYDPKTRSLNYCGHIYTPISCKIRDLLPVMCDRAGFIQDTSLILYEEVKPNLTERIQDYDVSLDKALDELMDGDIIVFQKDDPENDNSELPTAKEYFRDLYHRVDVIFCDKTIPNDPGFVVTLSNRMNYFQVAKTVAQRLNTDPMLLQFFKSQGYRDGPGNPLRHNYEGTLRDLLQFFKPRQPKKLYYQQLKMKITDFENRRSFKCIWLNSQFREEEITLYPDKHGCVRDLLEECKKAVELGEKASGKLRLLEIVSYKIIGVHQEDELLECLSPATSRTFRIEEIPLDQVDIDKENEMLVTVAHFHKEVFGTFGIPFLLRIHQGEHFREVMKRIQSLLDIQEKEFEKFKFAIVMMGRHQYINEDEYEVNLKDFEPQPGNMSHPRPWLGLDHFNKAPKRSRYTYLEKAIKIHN

**Q.** With `O=C1CCC(=O)N1Cc1cc2nccc(-c3cc(Cl)cc(Cl)c3CC3CNCCO3)c2s1` (centres unmarked) [Example 127, 1-((7-(3,5-dichloro-2-(morpholin-2-ylmethyl)phenyl)thieno[3,2-b]pyridin-2-yl)methyl)pyrrolidine-2,5-dione] as the compound, how does the IC50 read?
**A.** < 10 nM

**Q.** With `Cc1cc(Cl)cc(-c2ncnc3cc(CN4C(=O)C5CC5C4=O)sc23)c1C[C@H]1CNCCO1` (stereo partly drawn) [Example 181, 3-((4-(5-chloro-3-methyl-2-(((S)-morpholin-2-yl)methyl)phenyl)thieno[3,2-d]pyrimidin-6-yl)methyl)-3-azabicyclo[3.1.0]hexane-2,4-dione] as the compound, how does the IC50 read?
**A.** 10 to 100 nM

**Q.** `Cc1cc(Cl)cc(-c2ncnc3cc(CN4CCCC4=O)sc23)c1C[C@@H]1CNCC(C)(C)O1` [Example 235, (R)-1-((4-(5-chloro-2-((6,6-dimethylmorpholin-2-yl)methyl)-3-methylphenyl)thieno[3,2-d]pyrimidin-6-yl)methyl)pyrrolidin-2-one] was tested. Which IC50 did it give?
**A.** 10 to 100 nM

**Q.** `Cc1cc(Cl)cc(-c2ccnc3cc(CN4C(=O)C5CC5C4=O)sc23)c1CC1COCCN1` (centres unmarked) [Example 115, 3-((7-(5-chloro-3-methyl-2-(morpholin-3-ylmethyl)phenyl)thieno[3,2-b]pyridin-2-yl)methyl)-3-azabicyclo[3.1.0]hexane-2,4-dione] was tested. Which IC50 did it give?
**A.** > 100 nM

**Q.** How did the IC50 turn out when `Cc1cc(Cl)cc(-c2ncnc3cc(CN4C(=O)C5CC5C4=O)sc23)c1C[C@@H]1CNCC(C)(C)O1` (stereo partly drawn) [Example 216, 3-((4-(5-chloro-2-(((R)-6,6-dimethylmorpholin-2-yl)methyl)-3-methylphenyl)thieno[3,2-d]pyrimidin-6-yl)methyl)-3-azabicyclo[3.1.0]hexane-2,4-dione] was run?
**A.** < 10 nM

**Q.** With `Cc1cc(Cl)cc(-c2ccnc3cc(Cn4c(=O)ccn(C)c4=O)sc23)c1CC1CNCCO1` (centres unmarked) [Example 108, 3-((7-(5-chloro-3-methyl-2-(morpholin-2-ylmethyl)phenyl)thieno[3,2-b]pyridin-2-yl)methyl)-1-methylpyrimidine-2,4(1H,3H)-dione] as the compound, how does the IC50 read?
**A.** < 10 nM

**Q.** How did the IC50 turn out when `Cc1cc(Cl)cc(-c2ncnc3cc(CN4C(=O)CCCC4=O)sc23)c1CC1CNCCO1` (centres unmarked) [Example 163, 1-((4-(5-chloro-3-methyl-2-(morpholin-2-ylmethyl)phenyl)thieno[3,2-d]pyrimidin-6-yl)methyl)piperidine-2,6-dione] was run?
**A.** < 10 nM

**Q.** How did the IC50 turn out when `COCc1cc2ncnc(-c3cc(Cl)cc(C)c3C[C@@H]3CNCC(C)(C)O3)c2s1` [Example 269, (R)-6-(4-chloro-2-(6-(methoxymethyl)thieno[3,2-d]pyrimidin-4-yl)-6-methylbenzyl)-2,2-dimethylmorpholine] was run?
**A.** > 100 nM

**Q.** Which IC50 does the source give for `Cc1cc(Cl)cc(-c2ccnc3cc(Cn4c(=O)ccn(C5CCC5)c4=O)sc23)c1CC1CNCCO1` (centres unmarked) [Example 111, 3-((7-(5-chloro-3-methyl-2-(morpholin-2-ylmethyl)phenyl)thieno[3,2-b]pyridin-2-yl)methyl)-1-cyclobutylpyrimidine-2,4(1H,3H)-dione] here?
**A.** < 10 nM

**Q.** How did the IC50 turn out when `Cc1cc(Cl)cc(-c2ncnc3cc(CN4C(=O)C5C(C4=O)C5(C)C)sc23)c1CC1(C)CNCCO1` (centres unmarked) [Example 157, 3-((4-(5-chloro-3-methyl-2-((2-methylmorpholin-2-yl)methyl)phenyl)thieno[3,2-d]pyrimidin-6-yl)methyl)-6,6-dimethyl-3-azabicyclo[3.1.0]hexane-2,4-dione] was run?
**A.** 10 to 100 nM

**Q.** Which IC50 does the source give for `Cc1cc(Cl)cc(-c2ccnc3cc(CN4C(=O)CCC4=O)sc23)c1CN1[C@@H](C)CN(C)C[C@@H]1C` [Example 29, 1-((7-(5-chloro-3-methyl-2-(((2S,6S)-2,4,6-trimethylpiperazin-1-yl)methyl)phenyl)thieno[3,2-b]pyridin-2-yl)methyl)pyrrolidine-2,5-dione] here?
**A.** < 10 nM

**Q.** How did the IC50 turn out when `CN1CC(=O)N(Cc2cc3ncnc(-c4cc(Cl)cc(Cl)c4CC4CNCC(C)(C)O4)c3s2)C1=O` (centres unmarked) [Example 253, 3-((4-(3,5-dichloro-2-((6,6-dimethylmorpholin-2-yl)methyl)phenyl)thieno[3,2-d]pyrimidin-6-yl)methyl)-1-methylimidazolidine-2,4-dione] was run?
**A.** < 10 nM

**Q.** With `Cc1cc(Cl)cc(-c2ccnc3cc(CN4C(=O)CCC4=O)sc23)c1CN1[C@H](C)CNC[C@@H]1C` [Example 22, 1-((7-(5-chloro-2-(((2R,6S)-2,6-dimethylpiperazin-1-yl)methyl)-3-methylphenyl)thieno[3,2-b]pyridin-2-yl)methyl)pyrrolidine-2,5-dione] as the compound, how does the IC50 read?
**A.** < 10 nM

**Q.** How did the IC50 turn out when `Cc1cc(Cl)cc(-c2ccnc3cc(CN4C(=O)CCC4=O)sc23)c1CN1CCN(C(C)C)C[C@@H]1C` [Example 21, (S)-1-((7-(5-chloro-2-((4-isopropyl-2-methylpiperazin-1-yl)methyl)-3-methylphenyl)thieno[3,2-b]pyridin-2-yl)methyl)pyrrolidine-2,5-dione] was run?
**A.** < 10 nM

**Q.** How did the IC50 turn out when `Cc1cc(Cl)cc(-c2ncnc3cc(CN4C(=O)C5CC5C4=O)sc23)c1CC1CNCCO1` (centres unmarked) [Example 152, 3-((4-(5-chloro-3-methyl-2-(morpholin-2-ylmethyl)phenyl)thieno[3,2-d]pyrimidin-6-yl)methyl)-3-azabicyclo[3.1.0]hexane-2,4-dione] was run?
**A.** < 10 nM

**Q.** `Cc1cc(Cl)cc(-c2ncnc3cc(CN4C(=O)C5C(C4=O)C5(C)C)sc23)c1CN1CCN(C)C[C@@H]1C` (stereo partly drawn) [Example 53, 3-((4-(5-chloro-2-(((S)-2,4-dimethylpiperazin-1-yl)methyl)-3-methylphenyl)thieno[3,2-d]pyrimidin-6-yl)methyl)-6,6-dimethyl-3-azabicyclo[3.1.0]hexane-2,4-dione] was tested. Which IC50 did it give?
**A.** 10 to 100 nM

**Q.** With `Cc1cc(Cl)cc(-c2ccnc3cc(CN4C(=O)CCC4=O)sc23)c1CN1CCNC(C)C1` (centres unmarked) [Example 18, 1-((7-(5-chloro-3-methyl-2-((3-methylpiperazin-1-yl)methyl)phenyl)thieno[3,2-b]pyridin-2-yl)methyl)pyrrolidine-2,5-dione] as the compound, how does the IC50 read?
**A.** < 10 nM

**Q.** How did the IC50 turn out when `Cc1cc(Cl)cc(-c2ncnc3cc(CN4C(=O)CN(CC(=O)O)C4=O)sc23)c1C[C@@H]1CNCCO1` [Example 261, (R)-2-(3-((4-(5-chloro-3-methyl-2-(morpholin-2-ylmethyl)phenyl)thieno[3,2-d]pyrimidin-6-yl)methyl)-2,4-dioxoimidazolidin-1-yl)acetic acid] was run?
**A.** 10 to 100 nM

**Q.** `COC(=O)C1CC1C(=O)NCc1cc2ncnc(-c3cc(Cl)cc(C)c3C[C@H]3OCCN[C@@H]3C)c2s1` (stereo partly drawn) [Example 161, methyl 2-(((4-(5-chloro-3-methyl-2-(((2R,3R)-3-methylmorpholin-2-yl)methyl)phenyl)thieno[3,2-d]pyrimidin-6-yl)methyl)carbamoyl)cyclopropane-1-carboxylate] was tested. Which IC50 did it give?
**A.** 10 to 100 nM

**Q.** For `Cc1cc(Cl)cc(-c2ccnc3cc(CN4C(=O)C5CC5C4=O)sc23)c1CC1CNCC(C)(C)O1` (centres unmarked) [Example 120, 3-((7-(5-chloro-2-((6,6-dimethylmorpholin-2-yl)methyl)-3-methylphenyl)thieno[3,2-b]pyridin-2-yl)methyl)-3-azabicyclo[3.1.0]hexane-2,4-dione], which IC50 is on record?
**A.** < 10 nM

**Q.** How did the IC50 turn out when `Cc1cc(Cl)cc(-c2ncnc3cc(Cn4c(=O)ccn(C)c4=O)sc23)c1C[C@@H]1CNCC(C)(C)O1` [Example 218, (R)-3-((4-(5-chloro-2-((6,6-dimethylmorpholin-2-yl)methyl)-3-methylphenyl)thieno[3,2-d]pyrimidin-6-yl)methyl)-1-methylpyrimidine-2,4(1H,3H)-dione] was run?
**A.** < 10 nM

**Q.** With `CC1(C)CNCC(Cc2c(Cl)cc(Cl)cc2-c2ncnc3cc(Cn4cnccc4=O)sc23)O1` (centres unmarked) [Example 251, 3-((4-(3,5-dichloro-2-((6,6-dimethylmorpholin-2-yl)methyl)phenyl)thieno[3,2-d]pyrimidin-6-yl)methyl)pyrimidin-4(3H)-one] as the compound, how does the IC50 read?
**A.** > 100 nM

**Q.** How did the IC50 turn out when `Cc1cc(Cl)cc(-c2ccnc3cc(CN4C(=O)CCC4=O)sc23)c1C[C@@H]1CNCC(C)(C)O1` [Example 136, (R)-1-((7-(5-chloro-2-((6,6-dimethylmorpholin-2-yl)methyl)-3-methylphenyl)thieno[3,2-b]pyridin-2-yl)methyl)pyrrolidine-2,5-dione] was run?
**A.** < 10 nM

**Q.** Which IC50 does the source give for `C[C@H]1CNC[C@H](C)N1Cc1c(Cl)cc(Cl)cc1-c1ccnc2cc(CN3C(=O)CCC3=O)sc12` [Example 48, 1-((7-(3,5-dichloro-2-(((2S,6S)-2,6-dimethylpiperazin-1-yl)methyl)phenyl)thieno[3,2-b]pyridin-2-yl)methyl)pyrrolidine-2,5-dione] here?
**A.** < 10 nM

**Q.** How did the IC50 turn out when `C[C@H]1CNCCN1Cc1c(F)cccc1-c1ncnc2cc(CN3C(=O)C4CC4C3=O)sc12` (stereo partly drawn) [Example 72, 3-((4-(3-fluoro-2-(((S)-2-methylpiperazin-1-yl)methyl)phenyl)thieno[3,2-d]pyrimidin-6-yl)methyl)-3-azabicyclo[3.1.0]hexane-2,4-dione] was run?
**A.** > 100 nM

**Q.** Which IC50 does the source give for `Cc1cc(Cl)cc(-c2ncnc3cc(CN4C(=O)C5C(C4=O)C5(C)C)sc23)c1CN1C[C@@H](C)NC[C@@H]1C` (stereo partly drawn) [Example 67, 3-((4-(5-chloro-2-(((2S,5R)-2,5-dimethylpiperazin-1-yl)methyl)-3-methylphenyl)thieno[3,2-d]pyrimidin-6-yl)methyl)-6,6-dimethyl-3-azabicyclo[3.1.0]hexane-2,4-dione] here?
**A.** < 10 nM

**Q.** Which IC50 does the source give for `Cc1cc(Cl)cc(-c2ccnc3cc(CN4C(=O)CCC4=O)sc23)c1CN1CCNCC1(C)C` [Example 12, 1-((7-(5-chloro-2-((2,2-dimethylpiperazin-1-yl)methyl)-3-methylphenyl)thieno[3,2-b]pyridin-2-yl)methyl)pyrrolidine-2,5-dione] here?
**A.** < 10 nM

**Q.** How did the IC50 turn out when `Cc1cc(Cl)cc(-c2ccnc3cc(Cn4c(=O)ccn(C)c4=O)sc23)c1CN1C[C@@H](C)NC[C@@H]1C` [Example 46, 3-((7-(5-chloro-2-(((2S,5R)-2,5-dimethylpiperazin-1-yl)methyl)-3-methylphenyl)thieno[3,2-b]pyridin-2-yl)methyl)-1-methylpyrimidine-2,4(1H,3H)-dione] was run?
**A.** < 10 nM

**Q.** Which IC50 does the source give for `Cc1cc(Cl)cc(-c2ccnc3cc(CN4C(=O)CCN(C)C4=O)sc23)c1CC1CNCC2(CCC2)O1` (centres unmarked) [Example 144, 3-((7-(2-((5-oxa-8-azaspiro[3.5]nonan-6-yl)methyl)-5-chloro-3-methylphenyl)thieno[3,2-b]pyridin-2-yl)methyl)-1-methyldihydropyrimidine-2,4(1H,3H)-dione] here?
**A.** < 10 nM
